Tested on: S. aureus ATCC 6538
Assay: Microbicidal effect of CPC on S. aureus cultures (log reduction in count)
Format: cell-based, Staphylococcus aureus
Conditions: incubated 10 minutes at 37° C
Experimental: The microbicidal effect of cetyl pyridinium chloride (CPC) was tested using a strain of Staphylococcus aureus. Specifically, S. aureus ATCC 6538 cultures were placed in three different test tubes. Different concentrations (0.1%, 0.01% or 0.001%) of CPC were added to each of the test tubes. The mixture of CPC and S. aureus was incubated for 10 minutes on a tube rotator at 37° C. The results are shown below in Table 1 as the log reduction in S. aureus count.

CCCCCCCCCCCCCCCC[n+]1ccccc1 [CPC, cetyl pyridinium chloride]
Log reduction in S. aureus count (CPC concentration 0.001%): 3.4 | Log reduction in S. aureus count (CPC concentration 0.01%): 5.3 | Log reduction in S. aureus count (CPC concentration 0.1%): 5.3

Reference: US20070054834A1, “Quaternary ammonium halides for treatment of infectious conditions” (NanoBio Corporation, priority 2005, published 2007)
